Assay: wn = mass fraction of the nth substance listed
Conditions: 102 kPa, Liquid, Vibrating tube method

CCCCC1CCCCC1 [butylcyclohexane] + CCCCCCCCCCCCCCCC
mass density [kg/m3]
Conditions	w1 = 0.1002	w1 = 0.2	w1 = 0.3001	w1 = 0.3998	w1 = 0.4998	w1 = 0.6001	w1 = 0.7	w1 = 0.7999	w1 = 0.8998
293.15 K	775.85	778.23	780.67	783.16	785.72	788.34	791.01	793.72	796.48
303.15 K	768.9	771.24	773.65	776.08	778.59	781.15	783.74	786.38	789.06
313.15 K	761.94	764.25	766.6	768.99	771.43	773.92	776.44	779	781.6
323.15 K	754.99	757.24	759.55	761.87	764.25	766.67	769.12	771.6	774.12
333.15 K	748.02	750.22	752.47	754.73	757.04	759.39	761.76	764.16	766.6
343.15 K	741.1	743.2	745.35	747.5	749.8	752.1	754.35	756.6	759
353.15 K	734.1	736.1	738.3	740.3	742.5	744.7	746.9	749.1	751.4

CCCCC1CCCCC1 [butylcyclohexane] + Cc1ccccc1
mass density [kg/m3]
Conditions	w1 = 0.1002	w1 = 0.2175	w1 = 0.3001	w1 = 0.3999	w1 = 0.5	w1 = 0.6001	w1 = 0.6995	w1 = 0.8001	w1 = 0.8996
293.15 K	858.58	849.42	843.23	835.97	829.25	822.67	816.44	810.43	804.75
303.15 K	849.47	840.53	834.5	827.42	820.88	814.48	808.43	802.58	797.08
313.15 K	840.29	831.58	825.72	818.82	812.46	806.25	800.37	794.7	789.37
323.15 K	831.04	822.57	816.86	810.17	803.99	797.96	792.27	786.78	781.62
333.15 K	821.72	813.48	807.94	801.44	795.45	789.62	784.11	778.81	773.83
343.15 K	812.2	804.3	798.8	792.6	786.8	781.3	775.9	770.7	765.9
353.15 K	802.7	795.1	789.7	783.7	778.1	772.8	767.5	762.6	758

— the NIST ThermoML archive (doi:10.1021/acs.jced.6b00516)
